Assay results from patent US20150239889A1, “PYRAZOLOPYRIMIDINE COMPOUND” (MITSUBISHI TANABE PHARMA CORPORATION, priority 2012, published 2015).

Tests used:
human HIF-PHD2 = biological target: T1, human HIF-PHD2 (Homo sapiens, UniProt Q9GZT9); assay: HIF-PHD inhibition assay (fluorescence polarization), human HIF-PHD2; assay type: biochemical; settings: 2-oxoglutaric acid 3.33 μmol/L
T1 construct: purchased CrystalGenomics Ltd
Experimental: (§1) The activity of the test compound to inhibit human HIF-PHD2 and human HIF-PHD3 was determined.
(§2) The value of enzyme activity was calculated by subtracting the value of fluorescence polarization before addition of the enzyme from the value of fluorescence polarization after addition of enzyme (mP value).
(§3) FAM: 5′-fluoresceinamide ACA: aminocaproic acid

human HIF-PHD3 = biological target: T2, human HIF-PHD3 (Homo sapiens, UniProt Q9H6Z9); assay: HIF-PHD inhibition assay (fluorescence polarization), human HIF-PHD3; assay type: biochemical; settings: 2-oxoglutaric acid 166 μmol/L
T2 construct: purchased CrystalGenomics Ltd
Experimental: as §1, §2, §3

T2 sequence (Q9H6Z9 whole entry): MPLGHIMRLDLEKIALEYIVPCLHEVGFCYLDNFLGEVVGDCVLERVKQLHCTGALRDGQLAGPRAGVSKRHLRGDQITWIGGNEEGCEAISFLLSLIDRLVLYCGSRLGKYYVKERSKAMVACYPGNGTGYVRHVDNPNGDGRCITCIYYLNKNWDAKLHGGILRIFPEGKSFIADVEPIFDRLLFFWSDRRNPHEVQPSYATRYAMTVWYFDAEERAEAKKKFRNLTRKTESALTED
T1 sequence (Q9GZT9 2-426 limits assumed): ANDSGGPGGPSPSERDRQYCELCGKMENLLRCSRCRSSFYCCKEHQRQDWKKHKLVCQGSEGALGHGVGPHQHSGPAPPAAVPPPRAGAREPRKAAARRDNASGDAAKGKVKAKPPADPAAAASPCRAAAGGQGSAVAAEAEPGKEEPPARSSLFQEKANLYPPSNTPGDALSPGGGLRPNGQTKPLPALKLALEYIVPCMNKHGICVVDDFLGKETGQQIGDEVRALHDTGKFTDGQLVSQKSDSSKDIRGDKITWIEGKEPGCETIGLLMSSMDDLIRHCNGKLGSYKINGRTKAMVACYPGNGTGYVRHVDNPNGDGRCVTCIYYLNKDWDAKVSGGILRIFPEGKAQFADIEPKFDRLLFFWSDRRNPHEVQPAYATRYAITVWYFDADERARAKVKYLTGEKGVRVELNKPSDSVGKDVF

Row | IC50 (human HIF-PHD2) [nM] | IC50 (human HIF-PHD3) [nM] | SMILES
1 | 71 | 480 | CC1(C)CCC(n2nc(F)c3nc(-n4cc(C(=O)O)cn4)nc(O)c32)CC1 [Example 481]
2 | 62 | 1900 | Cc1nn([C@@H](C)c2ccc(F)cc2)c2c(O)nc(-n3cc(C(=O)O)cn3)nc12 [Example 448]
3 | 59 | 840 | CCCC(CCC)n1ncc2nc(-n3cc(C(=O)O)cn3)nc(O)c21 [Example 488]
4 | 91 | 840 | Cc1nn([C@@H](C)c2ccc(F)cc2F)c2c(O)nc(-n3cc(C(=O)O)cn3)nc12 [Example 451]
5 | 62 | 850 | C[C@H](c1ccc(C(F)(F)F)c(F)c1)n1ncc2nc(-n3cc(C(=O)O)cn3)nc(O)c21 [Example 280]
6 | 76 | 870 | Cc1ccc(C(F)(F)F)cc1[C@@H](C)n1ncc2nc(-n3cc(C(=O)O)cn3)nc(O)c21 [Example 285]
7 | 34 | 350 | O=C(O)c1cnn(-c2nc(O)c3c(cnn3C(c3ccc(F)cc3)C3CC3)n2)c1 (single isomer, unassigned) [Example 367]
8 | 53 | 830 | CC[C@@H](c1ccc(C)c(F)c1)n1ncc2nc(-n3cc(C(=O)O)cn3)nc(O)c21 [Example 345]
9 | 19 | 170 | Cc1cccc(OCCCn2ncc3nc(-n4cc(C(=O)O)cn4)nc(O)c32)c1C [Example 180]
10 | 35 | 360 | O=C(O)c1cnn(-c2nc(O)c3c(cnn3Cc3cccc4ccccc34)n2)c1 [Example 28]
11 | 100 | 1500 | CC(C)C(c1cccc(C(F)(F)F)c1)n1ncc2nc(-n3cc(C(=O)O)cn3)nc(O)c21 (centres unmarked) [Example 362]
12 | 99 | 630 | CC(C)(C)Cn1ncc2nc(-n3cc(C(=O)O)cn3)nc(O)c21 [Example 491]
13 | 30 | 210 | C[C@@H](c1ccc2c(c1)CCC2)n1ncc2nc(-n3cc(C(=O)O)cn3)nc(O)c21 [Example 289]
14 | 48 | 840 | Cc1ccc(F)cc1[C@H](C)n1ncc2nc(-n3cc(C(=O)O)cn3)nc(O)c21 [Example 287]
15 | 24 | 210 | CCC(c1ccc(Cl)cc1F)n1ncc2nc(-n3cc(C(=O)O)cn3)nc(O)c21 (single isomer, unassigned) [Example 351]
16 | 22 | 540 | O=C(O)c1cnn(-c2nc(O)c3c(cnn3C[C@H]3CCN(c4cccc(C(F)(F)F)c4)C3)n2)c1 [Example 429]
17 | 85 | 520 | CC(c1cc(Cl)c(Cl)s1)n1ncc2nc(-n3cc(C(=O)O)cn3)nc(O)c21 (centres unmarked) [Example 319]
18 | 38 | 400 | CCC(c1ccc(Cl)c(C)c1)n1ncc2nc(-n3cc(C(=O)O)cn3)nc(O)c21 (single isomer, unassigned) [Example 347]
19 | 110 | 1600 | Cc1nn([C@@H](C)c2ccc(F)cc2Cl)c2c(O)nc(-n3cc(C(=O)O)cn3)nc12 [Example 452]
20 | 44 | 480 | CC(c1ccc(N2CCC(F)CC2)cc1)n1ncc2nc(-n3cc(C(=O)O)cn3)nc(O)c21 (racemic) [Example 424]
21 | 32 | 420 | CCC(c1ccc(F)c(Cl)c1)n1ncc2nc(-n3cc(C(=O)O)cn3)nc(O)c21 (centres unmarked) [Example 337]

Row | IC50 (human HIF-PHD2) [nM] | IC50 (human HIF-PHD3) [nM] | SMILES
22 | 44 | 690 | Cc1ccc([C@H](C)n2ncc3nc(-n4cc(C(=O)O)cn4)nc(O)c32)cc1C [Example 259]
23 | 140 | 940 | CC(C)[C@@H]1CC[C@@H](C)C[C@@H]1n1ncc2nc(-n3cc(C(=O)O)cn3)nc(O)c21 [Example 403]
24 | 25 | 310 | O=C(O)c1cnn(-c2nc(O)c3c(cnn3C[C@H]3CCN(c4ccc(C(F)(F)F)cc4)C3)n2)c1 [Example 427]
25 | > 300 | 750 | Cc1nn(CC(C)(C)C)c2c(O)nc(-n3cc(C(=O)O)cn3)nc12 [Example 500]
26 | 28 | 420 | CCC(c1ccc(F)c(Cl)c1)n1ncc2nc(-n3cc(C(=O)O)cn3)nc(O)c21 (single isomer, unassigned) [Example 338]
27 | 120 | 560 | C[C@@H](c1cccc(Cl)c1F)n1ncc2nc(-n3cc(C(=O)O)cn3)nc(O)c21 [Example 279]
28 | 28 | 420 | C[C@@H](C1CCN(c2cccc(C(F)(F)F)c2)CC1)n1ncc2nc(-n3cc(C(=O)O)cn3)nc(O)c21 [Example 434]
29 | 160 | 780 | Cc1ccccc1[C@H](C)n1ncc2nc(-n3cc(C(=O)O)cn3)nc(O)c21 [Example 265]
30 | 17 | 280 | C[C@@H](C1CCN(c2ccc(C(F)(F)F)cc2)CC1)n1ncc2nc(-n3cc(C(=O)O)cn3)nc(O)c21 [Example 431]
31 | 55 | 480 | Cc1ccc(C(C)n2ncc3nc(-n4cc(C(=O)O)cn4)nc(O)c32)cc1F (single isomer, unassigned) [Example 296]
32 | 68 | > 3000 | Cc1ccc(C)c([C@H](C)n2ncc3nc(-n4cc(C(=O)O)cn4)nc(O)c32)c1 [Example 283]
33 | 250 | 1500 | Cc1nn([C@@H](C)c2cc(F)ccc2F)c2c(O)nc(-n3cc(C(=O)O)cn3)nc12 [Example 453]
34 | 21 | 230 | O=C(O)c1cnn(-c2nc(O)c3c(cnn3C[C@H]3CCN(c4ccc(Cl)cc4)C3)n2)c1 [Example 428]
35 | 22 | 470 | Cc1cc(C(C)n2ncc3nc(-n4cc(C(=O)O)cn4)nc(O)c32)ccc1Cl (single isomer, unassigned) [Example 294]
36 | 95 | 650 | CCC(c1ccc(F)cc1)n1ncc2nc(-n3cc(C(=O)O)cn3)nc(O)c21 (centres unmarked) [Example 324]
37 | 120 | 2200 | CC(C)n1ncc2nc(-n3cc(C(=O)O)cn3)nc(O)c21 [Example 486]
38 | 78 | 610 | CC(c1ccc(F)c(C(F)(F)F)c1)n1ncc2nc(-n3cc(C(=O)O)cn3)nc(O)c21 (centres unmarked) [Example 303]
39 | 26 | 280 | O=C(O)c1cnn(-c2nc(O)c3nn(CC4(COc5ccc6c(c5)CCCC6)CC4)cc3n2)c1 [Example 249]
40 | 260 | 2500 | CCC(c1cc(C(F)(F)F)cc(C(F)(F)F)c1)n1ncc2nc(-n3cc(C(=O)O)cn3)nc(O)c21 (centres unmarked) [Example 334]
41 | 11 | 190 | O=C(O)c1cnn(-c2nc(O)c3c(cnn3Cc3ccc(C4CC4)cc3)n2)c1 [Example 321]
42 | 28 | 280 | O=C(O)c1cnn(-c2nc(O)c3c(cnn3Cc3ccc(-c4ccc(Cl)cc4Cl)cc3)n2)c1 [Example 72]

Row | IC50 (human HIF-PHD2) [nM] | IC50 (human HIF-PHD3) [nM] | SMILES
43 | 36 | 630 | CCC(c1ccc(F)cc1)n1ncc2nc(-n3cc(C(=O)O)cn3)nc(O)c21 (single isomer, unassigned) [Example 325]
44 | 59 | 490 | Cc1cc(F)cc(C(C)n2ncc3nc(-n4cc(C(=O)O)cn4)nc(O)c32)c1 (single isomer, unassigned) [Example 300]
45 | 86 | 530 | Cc1cc(Cl)cc([C@H](C)n2ncc3nc(-n4cc(C(=O)O)cn4)nc(O)c32)c1 [Example 267]
46 | 53 | 430 | C[C@@H](c1ccc(C(F)(F)F)cc1)n1nc(C2CC2)c2nc(-n3cc(C(=O)O)cn3)nc(O)c21 [Example 456]
47 | 36 | 370 | CCC(c1cc(F)cc(Cl)c1)n1ncc2nc(-n3cc(C(=O)O)cn3)nc(O)c21 (centres unmarked) [Example 339]
48 | 34 | 270 | Cc1nn(CC2CCC(F)(F)CC2)c2c(O)nc(-n3cc(C(=O)O)cn3)nc12 [Example 475]
49 | 76 | 790 | CC(C)[C@H]1CC[C@H](n2ncc3nc(-n4cc(C(=O)O)cn4)nc(O)c32)CC1 [Example 389]
50 | 96 | 820 | Cc1ccc(C(F)(F)F)cc1[C@H](C)n1ncc2nc(-n3cc(C(=O)O)cn3)nc(O)c21 [Example 286]
51 | 72 | 730 | Cc1ccc(C(C)n2ncc3nc(-n4cc(C(=O)O)cn4)nc(O)c32)cc1 (centres unmarked) [Example 291]
52 | 31 | 740 | CC(c1ccc(N2CCC(C(F)(F)F)CC2)cc1)n1ncc2nc(-n3cc(C(=O)O)cn3)nc(O)c21 (racemic) [Example 423]
53 | 54 | 710 | Cc1cc(C(C)n2ncc3nc(-n4cc(C(=O)O)cn4)nc(O)c32)ccc1F (centres unmarked) [Example 301]
54 | 10 | 330 | O=C(O)c1cnn(-c2nc(O)c3c(cnn3C3CCN(c4ccc(C(F)(F)F)cc4)CC3)n2)c1 [Example 436]
55 | 65 | 530 | CCC(c1ccc(Cl)c(C)c1)n1ncc2nc(-n3cc(C(=O)O)cn3)nc(O)c21 (centres unmarked) [Example 346]
56 | 70 | 1300 | CC1(C)CCCC1n1ncc2nc(-n3cc(C(=O)O)cn3)nc(O)c21 (centres unmarked) [Example 417]
57 | 28 | 77 | O=C(O)c1cnn(-c2nc(O)c3c(cnn3Cc3ccc(-c4ccccc4C4CC4)cc3)n2)c1 [Example 60]
58 | 48 | 440 | C[C@H](c1ccc(Cl)c(F)c1)n1ncc2nc(-n3cc(C(=O)O)cn3)nc(O)c21 [Example 270]
59 | 97 | 510 | C[C@@H](c1cccc(F)c1)n1ncc2nc(-n3cc(C(=O)O)cn3)nc(O)c21 [Example 254]
60 | 120 | 420 | Cc1ccc([C@H](C)n2ncc3nc(-n4cc(C(=O)O)cn4)nc(O)c32)cc1C(F)(F)F [Example 278]
61 | 22 | 460 | O=C(O)c1cnn(-c2nc(O)c3c(cnn3CCCOc3ccc4c(c3)CCC4)n2)c1 [Example 195]
